Experimental data as given in patent US20240217983A1, “GPR119 AGONISTS” (Kallyope, Inc., priority 2021, published 2024).

Biological target: T1, human GPR119 (hGPR119) (Homo sapiens, UniProt Q8TDV5)
T1 construct: expressed in transfected cells
T1 sequence (Q8TDV5 1-335): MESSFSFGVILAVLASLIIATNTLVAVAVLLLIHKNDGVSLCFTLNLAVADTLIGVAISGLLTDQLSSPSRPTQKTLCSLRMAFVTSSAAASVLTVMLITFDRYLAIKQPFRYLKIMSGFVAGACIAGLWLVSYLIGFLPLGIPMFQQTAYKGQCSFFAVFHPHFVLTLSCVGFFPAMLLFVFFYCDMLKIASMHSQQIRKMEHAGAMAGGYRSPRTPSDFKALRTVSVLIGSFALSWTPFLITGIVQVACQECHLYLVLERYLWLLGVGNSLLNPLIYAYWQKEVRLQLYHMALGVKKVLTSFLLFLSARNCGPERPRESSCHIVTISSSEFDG
Experiment: cAMP accumulation assay (Cisbio cAMP Gs dynamic HTRF kit) in CHO-K1 cells stably expressing human GPR119
Type: cell-based
Details: 4-parameter fit; for Emax: 1 h, % activity normalized to Max and Min controls; for EC50: 60 minutes at 37° C.
Experimental: CHO-K1 cells stably expressing human GPR119 (hGPR119) were prepared by transfection of a GPR119-carrying plasmid using Lipofectamine 2000 (following manufacturer instructions). A stable cell line was established using the limiting dilution method with geneticine selection. Assay-ready frozen (ARF) cells were prepared and used throughout the study.
The assay was performed in a 384-well plate format using the cAMP Gs dynamic assay kit from Cisbio. ARF cells expressing hGPR119 were thawed, washed and then resuspended in cAMP stimulation buffer at a cell density of 1.1×10^6 cells/mL. Cells were plated at a density of ˜10,000 cells/well (9 μL/well). Dose response curves for the tested compounds were prepared in a cAMP stimulation buffer, containing 0.1% Tween 80 at 4 fold the final concentration. The compounds were then transferred to the cell plates using BRAVO (3 μL/well) and the plates were incubated for 60 minutes at 37° C./5% CO2. Detection buffer (10 μL, prepared as described in the cAMP Gs dynamic kit) were added to each well, and the plates were incubated at ambient temperature for 1 hr.
RT-FRET was measured using a ClarioSTAR plate reader, calculating the ratio between emissions at 665 nm and 620 nm (HTRF ratio). The HTRF ratio for positive (Max) and negative (Min) controls were used to normalize HTRF data and generate values for % activity. EC50 and Max activity values were determined using a standard 4-parameter fit.

SMILES	Emax	EC50
O=C(Cc1ccc(OCCCC2CCN(c3ncc(Cl)cn3)CC2)cc1F)N1CC2CC(C1)N2C(=O)CCCCS(=O)(=O)O [Example 12, 5-(3-(2-(4-(3-(1-(5-chloropyrimidin-2-yl)piperidin-4-yl)propoxy)-2-fluorophenyl)acetyl)-3,6-diazabicyclo[3.1.1]heptan-6-yl)-5-oxopentane-1-sulfonic acid]	100 to 130%	≤ 100 nM
O=C(CCCCS(=O)(=O)O)N1C[C@@H]2CN(C(=O)Cc3ccc(OCCCC4CCN(c5ncc(Cl)cn5)CC4)cc3F)C[C@@H]2C1 [Example 10, 5-((3aR,6aS)-5-(2-(4-(3-(1-(5-chloropyrimidin-2-yl)piperidin-4-yl)propoxy)-2-fluorophenyl)acetyl)hexahydropyrrolo[3,4-c]pyrrol-2(1H)-yl)-5-oxopentane-1-sulfonic acid]	100 to 130%	≤ 100 nM
CCc1cnc(N2CCC(CCCOc3cc(F)c(CC(=O)N4CCN(C[C@H](O)[C@@H](O)[C@H](O)[C@H](O)CO)CC4)c(F)c3)CC2)nc1 [Example 93, 2-(4-(3-(1-(5-ethylpyrimidin-2-yl)piperidin-4-yl)propoxy)-2,6-difluorophenyl)-1-(4-((2S,3R,4R,5R)-2,3,4,5,6-pentahydroxyhexyl)piperazin-1-yl)ethan-1-one]	100 to 130%	≤ 100 nM
O=C(Cc1ccc(OCCCC2CCN(c3ncc(Cl)cn3)CC2)c(F)c1)N1CCN(C[C@H](O)[C@@H](O)[C@H](O)[C@H](O)CO)CC1 [Example 91, 2-(4-(3-(1-(5-chloropyrimidin-2-yl)piperidin-4-yl)propoxy)-3-fluorophenyl)-1-(4-((2S,3R,4R,5R)-2,3,4,5,6-pentahydroxyhexyl)piperazin-1-yl)ethan-1-one]	100 to 130%	100 to 1000 nM
O=C(Cc1ccc(OCCCC2CCN(c3ncc(Cl)cn3)CC2)cc1F)N1CCC2(CC1)CN(C[C@H](O)[C@@H](O)[C@H](O)[C@H](O)CO)C2 [Example 70, 2-(4-(3-(1-(5-chloropyrimidin-2-yl)piperidin-4-yl)propoxy)-2-fluorophenyl)-1-(2-((2S,3R,4R,5R)-2,3,4,5,6-pentahydroxyhexyl)-2,7-diazaspiro[3.5]nonan-7-yl)ethan-1-one]	100 to 130%	100 to 1000 nM
O=C(Cc1ccc(OCCC2CCC23CCN(c2ncc(Cl)cn2)CC3)cc1F)N1CCN(C[C@H](O)[C@@H](O)[C@H](O)[C@H](O)CO)CC1 (stereo partly drawn) [Example 113, 2-(4-(2-(7-(5-chloropyrimidin-2-yl)-7-azaspiro[3.5]nonan-1-yl)ethoxy)-2-fluorophenyl)-1-(4-((2S,3R,4R,5R)-2,3,4,5,6-pentahydroxyhexyl)piperazin-1-yl)ethan-1-one]	50 to 100%	> 10000 nM
O=C(Cc1ccc(OCCCC2CC23CCN(c2ncc(Cl)cn2)CC3)cc1F)N1CCN(C[C@H](O)[C@@H](O)[C@H](O)[C@H](O)CO)CC1 (stereo partly drawn) [Example 109, 2-(4-(3-(6-(5-chloropyrimidin-2-yl)-6-azaspiro[2.5]octan-1-yl)propoxy)-2-fluorophenyl)-1-(4-((2S,3R,4R,5R)-2,3,4,5,6-pentahydroxyhexyl)piperazin-1-yl)ethan-1-one]	100 to 130%	100 to 1000 nM
O=C(Cc1ccc(OCCCC2CCN(c3ncc(Cl)cn3)CC2)cc1F)N1CC2CC(C1)N2C[C@H](O)[C@@H](O)[C@H](O)[C@H](O)CO [Example 49, 2-(4-(3-(1-(5-chloropyrimidin-2-yl)piperidin-4-yl)propoxy)-2-fluorophenyl)-1-(6-((2S,3R,4R,5R)-2,3,4,5,6-pentahydroxyhexyl)-3,6-diazabicyclo[3.1.1]heptan-3-yl)ethan-1-one]	100 to 130%	≤ 100 nM
O=C(Cc1ccc(OCCCC2CCN(c3ncc(Cl)cn3)CC2)cc1F)N1CC2(CCC2NC[C@H](O)[C@@H](O)[C@H](O)[C@H](O)CO)C1 (stereo in doubt) [Example 79, 2-(4-(3-(1-(5-chloropyrimidin-2-yl)piperidin-4-yl)propoxy)-2-fluorophenyl)-1-(5-(((2S,3R,4R,5R)-2,3,4,5,6-pentahydroxyhexyl)amino)-2-azaspiro[3.3]heptan-2-yl)ethan-1-one]	≥ 130%	≤ 100 nM
O=C(Cc1ccc(OCCCC2CCN(c3ncc(Cl)cn3)CC2)cc1F)N1CCC2(CCCN2C[C@H](O)[C@@H](O)[C@H](O)[C@H](O)CO)C1 (stereo in doubt) [Example 75, 2-(4-(3-(1-(5-chloropyrimidin-2-yl)piperidin-4-yl)propoxy)-2-fluorophenyl)-1-(1-((2S,3R,4R,5R)-2,3,4,5,6-pentahydroxyhexyl)-1,7-diazaspiro[4.4]nonan-7-yl)ethan-1-one]	≥ 130%	≤ 100 nM
O=C(Cc1ccc(OCCCC2CCN(c3ncc(Cl)cn3)CC2)cc1F)N1CCC2(CC1)CCN2C(=O)CCCCS(=O)(=O)O [Example 21, 5-(7-(2-(4-(3-(1-(5-chloropyrimidin-2-yl)piperidin-4-yl)propoxy)-2-fluorophenyl)acetyl)-1,7-diazaspiro[3.5]nonan-1-yl)-5-oxopentane-1-sulfonic acid]	100 to 130%	≤ 100 nM

Other lines, results leading:

Emax	EC50	SMILES
100 to 130%	≤ 100 nM	O=C(Cc1ccc(OCCCC2CCN(c3ncc(Cl)cn3)CC2)cc1F)N1CCN(C[C@H](O)[C@H](O)[C@H](O)CO)C2CC21 (stereo partly drawn) [Example 58, 2-(4-(3-(1-(5-chloropyrimidin-2-yl)piperidin-4-yl)propoxy)-2-fluorophenyl)-1-(5-((2S,3S,4R)-2,3,4,5-tetrahydroxypentyl)-2,5-diazabicyclo[4.1.0]heptan-2-yl)ethan-1-one]
100 to 130%	≤ 100 nM	O=C(Cc1ccc(OCCCC2CCN(c3ncc(Cl)cn3)CC2)cc1F)N1CCCN(C[C@H](O)[C@@H](O)[C@H](O)[C@H](O)CO)CC1 [Example 51, 2-(4-(3-(1-(5-chloropyrimidin-2-yl)piperidin-4-yl)propoxy)-2-fluorophenyl)-1-(4-((2S,3R,4R,5R)-2,3,4,5,6-pentahydroxyhexyl)-1,4-diazepan-1-yl)ethan-1-one]
100 to 130%	≤ 100 nM	O=C(Cc1ccc(OCCCC2CCN(c3ncc(Cl)cn3)CC2)cc1F)N1C[C@@H]2C[C@H]1CN2C[C@H](O)[C@@H](O)[C@H](O)[C@H](O)CO [Example 55, 2-(4-(3-(1-(5-chloropyrimidin-2-yl)piperidin-4-yl)propoxy)-2-fluorophenyl)-1-((1S,4S)-5-((2S,3R,4R,5R)-2,3,4,5,6-pentahydroxyhexyl)-2,5-diazabicyclo[2.2.1]heptan-2-yl)ethan-1-one]
≥ 130%	≤ 100 nM	O=C(Cc1ccc(OCCCC2CCN(c3ncc(Cl)cn3)CC2)cc1F)N1C[C@@H]2CCN(C[C@H](O)[C@H](O)[C@H](O)CO)[C@@H]2C1 [Example 34, 2-(4-(3-(1-(5-chloropyrimidin-2-yl)piperidin-4-yl)propoxy)-2-fluorophenyl)-1-((3aS,6aS)-1-((2S,3S,4R)-2,3,4,5-tetrahydroxypentyl)hexahydropyrrolo[3,4-b]pyrrol-5(1H)-yl)ethan-1-one]
100 to 130%	≤ 100 nM	O=C(Cc1ccc(OCCCC2CCN(c3ncc(Cl)cn3)CC2)cc1F)N1C[C@H]2C[C@@H]1CN2C[C@H](O)[C@@H](O)[C@H](O)[C@H](O)CO [Example 47, 2-(4-(3-(1-(5-chloropyrimidin-2-yl)piperidin-4-yl)propoxy)-2-fluorophenyl)-1-((1R,4R)-5-((2S,3R,4R,5R)-2,3,4,5,6-pentahydroxyhexyl)-2,5-diazabicyclo[2.2.1]heptan-2-yl)ethan-1-one]
≥ 130%	≤ 100 nM	O=C(Cc1ccc(OCCCC2CCN(c3ncc(Cl)cn3)CC2)cc1F)N1C[C@H]2C[C@@H]1CN2C[C@H](O)[C@H](O)[C@H](O)CO [Example 46, 2-(4-(3-(1-(5-chloropyrimidin-2-yl)piperidin-4-yl)propoxy)-2-fluorophenyl)-1-((1R,4R)-5-((2S,3S,4R)-2,3,4,5-tetrahydroxypentyl)-2,5-diazabicyclo[2.2.1]heptan-2-yl)ethan-1-one]
100 to 130%	≤ 100 nM	O=C(Cc1ccc(OCCCC2CCN(c3ncc(Cl)cn3)CC2)cc1F)N1CCC2(CN(C[C@H](O)[C@H](O)[C@H](O)CO)C2)C1 [Example 28, 2-(4-(3-(1-(5-chloropyrimidin-2-yl)piperidin-4-yl)propoxy)-2-fluorophenyl)-1-(2-((2S,3S,4R)-2,3,4,5-tetrahydroxypentyl)-2,6-diazaspiro[3.4]octan-6-yl)ethan-1-one]
100 to 130%	≤ 100 nM	O=C(Cc1ccc(OCCCC2CCN(c3ncc(Cl)cn3)CC2)cc1F)N1C2CC1CN(C[C@H](O)[C@H](O)[C@H](O)CO)C2 [Example 56, 2-(4-(3-(1-(5-chloropyrimidin-2-yl)piperidin-4-yl)propoxy)-2-fluorophenyl)-1-(3-((2S,3S,4R)-2,3,4,5-tetrahydroxypentyl)-3,6-diazabicyclo[3.1.1]heptan-6-yl)ethan-1-one]
